The record followed here is patent publication US10323019B2, “Pyrazolylaminobenzimidazole derivatives as JAK inhibitors” (Eli Lilly and Company, priority 2016, dated 2019).

For assay [1], the target named is T1, JAK1 (Homo sapiens (Human), UniProt P23458). Nature of the assay: JAK LanthaScreen Kinase Assay (TR-FRET), JAK1 in vitro enzyme assay. The class given is biochemical. The settings on record: 20.0 μM ATP. On the procedure:
(§1) The JAK LanthaScreen™ Kinase Assay (Invitrogen) is used to determine the ability of test compounds to inhibit JAK1, JAK2, and JAK3 kinase activity. These are TR-FRET assay formats that use long-lifetime terbium labeled antibody as the donor species and GFP-STAT1 as the acceptor species. Use the TR-FRET ratio to monitor JAK kinase activity where an increase in phosphorylation of the GFP-STAT1 results in an increase in the TR-FRET ratio. Perform the kinase reaction using a 12.5 μl reaction volume in shallow black 384-well Proxiplate®. Add reagents to obtain final reaction conditions of […], 1.76 mM Triton X-100, ATP (20.0 μM for JAK1 and JAK3 or 5 μM for JAK2) enzyme assays, 10.0 mM MgCl2, 1 mM EGTA and 0.01% Brij-35, […] GFP-STAT1, 14 nM JAK1 enzyme for JAK1, 1.0 nM for JAK2 or 2.5 nM for JAK3 enzyme assays, and 4% DMSO and serial dilutions of test compound (diluted 1:3 from 20,000 to 1 nM). Following ATP/GFP-STAT1 addition, centrifuge the assay plates for 1 minute at 1000 revolutions per minute (RPM). Allow the plates to incubate at RT for 60 minutes and then add 12.5 μl of a stopping buffer containing 20 mM EDTA, 2 nM Terbium-anti-phosphorylated Signal Transducers and Activators of Transcription [phosphorylation Tyrosine 701 amino acid] […] Use ACTIVITYBASE® 4.0 to fit the percent inhibition and ten-point compound concentration data to a four-parameter logistic equation.

Assay [2] addresses JAK2 (Homo sapiens (Human), UniProt O60674). Nature of the assay: JAK LanthaScreen Kinase Assay (TR-FRET), JAK2 in vitro enzyme assay. The class given is biochemical. The settings on record: 5 μM ATP. The protocol:
as §1
Background: Time-resolved FRET reads energy transfer from a long-lived donor to a nearby acceptor.

The target in assay [3] is JAK3 (Homo sapiens (Human), UniProt P52333). The assay is described as follows: JAK LanthaScreen Kinase Assay (TR-FRET), JAK3 in vitro enzyme assay. The class given is biochemical. The settings on record: 20.0 μM ATP. The protocol:
as §1

Assay [4] concerns the target T1, JAK1. Nature of the assay: AlphaScreen SureFire p-STAT3-(p-Tyr705)-IL6-TF-1-JAK1 cell-based assay. The settings on record: TF-1 cells, IL6 30 ng/mL, pSTAT3. The protocol:
AlphaScreen SureFire Protocol p-STAT3-(p-Tyr705)-IL6-TF-1-JAK1 Cell-Based Assay
The JAK1 cell based assay described below is used to determine the JAK1 cellular potency of test compounds.
Cell preparation: Starve TF-1 cells in DMEM medium with 0.5% […] and 1× Pen/Strep at 37° C. Plate 100K cells per well in BD 96 well black plates with clear bottoms. Maintain the plates at RT for 30-60 minutes before incubating overnight at 37° C., and 5% CO2. Count cells using Vi-Cell counter, using a cell suspension at […] and plated 100 μL/well in […] Biocoat plates (Catalog #354640).
Test compound preparation and treatment: Prepare compounds at 1:3 serial dilutions in DMSO and further dilute into the medium. Test compounds in a range of 10 point concentrations from 20,000 to 1 nM. Add diluted compound to corresponding cell plates. Incubate the plates at 37° C. for 20 min. Add IL6 solution at the final concentration 30 ng/mL to corresponding cell plates and continue to incubate at 37° C. for 30 min. Remove media and add 50 μL 1× lysis buffer to each well.
pSTAT3 detection: Perform the following steps sequentially: make acceptor mix (activation buffer/reaction buffer/acceptor beads); transfer 4 μL lysate from 96 well plates to 384 well-Proxiplates; add 5 μL acceptor mix to 384 proxiplate plate(s) and seal plates with aluminum seal; shake 1-2 minutes on plate shaker; incubate plate at RT for 2 hr with gentle shaking; make donor mix (donor beads in dilution buffer); add 2 μL donor mix to assay plates; seal plates with aluminum seal; shake 1-2 minutes on plate shaker; incubate at RT for 2 hr with gentle shaking; read plate with Envision; protocol AlphaScreen Surefire 384.
A general note: In Alpha technology, singlet oxygen from a donor bead excites a nearby acceptor bead.

SMILES strings stand for the structures.

In general, IC50 refers to the concentration that gives 50% inhibition.

T1 sequence (P23458 whole entry): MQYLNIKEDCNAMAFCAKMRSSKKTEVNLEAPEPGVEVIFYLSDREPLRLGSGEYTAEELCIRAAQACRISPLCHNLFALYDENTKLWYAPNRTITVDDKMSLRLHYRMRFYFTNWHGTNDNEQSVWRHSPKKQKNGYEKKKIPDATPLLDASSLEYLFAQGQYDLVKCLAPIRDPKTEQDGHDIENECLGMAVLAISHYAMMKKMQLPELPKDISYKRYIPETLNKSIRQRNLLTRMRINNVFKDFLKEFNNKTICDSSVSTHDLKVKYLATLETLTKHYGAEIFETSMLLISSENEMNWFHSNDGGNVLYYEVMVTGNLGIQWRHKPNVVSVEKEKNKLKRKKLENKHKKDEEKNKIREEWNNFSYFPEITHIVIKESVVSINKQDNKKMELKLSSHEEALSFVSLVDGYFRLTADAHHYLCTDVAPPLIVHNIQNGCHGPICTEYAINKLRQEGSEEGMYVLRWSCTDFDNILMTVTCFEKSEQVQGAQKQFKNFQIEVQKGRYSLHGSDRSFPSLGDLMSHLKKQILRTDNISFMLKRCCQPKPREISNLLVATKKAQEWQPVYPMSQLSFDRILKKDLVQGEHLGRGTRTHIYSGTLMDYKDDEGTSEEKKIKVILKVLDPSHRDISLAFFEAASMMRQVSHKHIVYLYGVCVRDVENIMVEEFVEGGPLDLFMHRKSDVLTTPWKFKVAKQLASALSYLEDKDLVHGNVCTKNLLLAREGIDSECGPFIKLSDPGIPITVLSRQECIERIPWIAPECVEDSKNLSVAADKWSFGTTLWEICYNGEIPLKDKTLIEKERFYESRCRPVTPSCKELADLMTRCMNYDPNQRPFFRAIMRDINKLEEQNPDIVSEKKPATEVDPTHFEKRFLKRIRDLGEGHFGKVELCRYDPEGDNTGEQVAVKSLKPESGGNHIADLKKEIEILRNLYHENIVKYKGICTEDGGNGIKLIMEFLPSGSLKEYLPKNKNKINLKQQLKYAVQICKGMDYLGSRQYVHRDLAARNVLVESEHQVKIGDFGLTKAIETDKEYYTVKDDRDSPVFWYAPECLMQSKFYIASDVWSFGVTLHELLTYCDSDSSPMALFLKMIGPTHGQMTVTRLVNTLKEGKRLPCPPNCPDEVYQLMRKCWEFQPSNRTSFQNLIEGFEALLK
JAK3, sequence (P52333 whole entry): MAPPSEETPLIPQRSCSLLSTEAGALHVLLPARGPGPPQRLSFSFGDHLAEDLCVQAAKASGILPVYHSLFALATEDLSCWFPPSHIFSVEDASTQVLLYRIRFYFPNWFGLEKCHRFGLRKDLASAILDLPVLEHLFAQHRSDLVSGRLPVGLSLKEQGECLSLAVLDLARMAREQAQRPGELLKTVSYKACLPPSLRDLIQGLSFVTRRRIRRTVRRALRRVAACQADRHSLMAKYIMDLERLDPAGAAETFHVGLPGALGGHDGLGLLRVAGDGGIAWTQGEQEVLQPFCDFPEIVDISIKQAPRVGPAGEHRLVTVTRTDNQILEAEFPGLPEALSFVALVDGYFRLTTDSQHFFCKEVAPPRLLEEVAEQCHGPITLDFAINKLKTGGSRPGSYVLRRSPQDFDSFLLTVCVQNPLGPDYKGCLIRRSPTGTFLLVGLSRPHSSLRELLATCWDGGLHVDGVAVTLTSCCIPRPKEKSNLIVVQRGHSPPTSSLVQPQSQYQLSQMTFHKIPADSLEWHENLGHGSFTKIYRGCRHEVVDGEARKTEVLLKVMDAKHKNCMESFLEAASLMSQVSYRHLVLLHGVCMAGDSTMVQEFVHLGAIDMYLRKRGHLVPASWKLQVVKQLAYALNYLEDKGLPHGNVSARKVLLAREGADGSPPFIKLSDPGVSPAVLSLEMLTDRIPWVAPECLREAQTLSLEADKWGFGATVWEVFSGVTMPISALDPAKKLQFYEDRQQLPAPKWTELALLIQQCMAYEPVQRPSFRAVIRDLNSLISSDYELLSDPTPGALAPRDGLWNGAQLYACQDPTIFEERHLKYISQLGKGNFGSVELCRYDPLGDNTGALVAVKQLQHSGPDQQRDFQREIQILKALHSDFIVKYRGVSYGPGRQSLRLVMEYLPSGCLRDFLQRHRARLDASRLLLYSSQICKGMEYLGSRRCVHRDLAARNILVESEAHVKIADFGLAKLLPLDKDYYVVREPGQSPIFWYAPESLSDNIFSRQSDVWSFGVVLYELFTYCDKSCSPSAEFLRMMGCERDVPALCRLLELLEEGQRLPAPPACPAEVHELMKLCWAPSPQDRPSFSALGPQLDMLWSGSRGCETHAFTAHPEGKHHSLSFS
JAK2, sequence (O60674 whole entry): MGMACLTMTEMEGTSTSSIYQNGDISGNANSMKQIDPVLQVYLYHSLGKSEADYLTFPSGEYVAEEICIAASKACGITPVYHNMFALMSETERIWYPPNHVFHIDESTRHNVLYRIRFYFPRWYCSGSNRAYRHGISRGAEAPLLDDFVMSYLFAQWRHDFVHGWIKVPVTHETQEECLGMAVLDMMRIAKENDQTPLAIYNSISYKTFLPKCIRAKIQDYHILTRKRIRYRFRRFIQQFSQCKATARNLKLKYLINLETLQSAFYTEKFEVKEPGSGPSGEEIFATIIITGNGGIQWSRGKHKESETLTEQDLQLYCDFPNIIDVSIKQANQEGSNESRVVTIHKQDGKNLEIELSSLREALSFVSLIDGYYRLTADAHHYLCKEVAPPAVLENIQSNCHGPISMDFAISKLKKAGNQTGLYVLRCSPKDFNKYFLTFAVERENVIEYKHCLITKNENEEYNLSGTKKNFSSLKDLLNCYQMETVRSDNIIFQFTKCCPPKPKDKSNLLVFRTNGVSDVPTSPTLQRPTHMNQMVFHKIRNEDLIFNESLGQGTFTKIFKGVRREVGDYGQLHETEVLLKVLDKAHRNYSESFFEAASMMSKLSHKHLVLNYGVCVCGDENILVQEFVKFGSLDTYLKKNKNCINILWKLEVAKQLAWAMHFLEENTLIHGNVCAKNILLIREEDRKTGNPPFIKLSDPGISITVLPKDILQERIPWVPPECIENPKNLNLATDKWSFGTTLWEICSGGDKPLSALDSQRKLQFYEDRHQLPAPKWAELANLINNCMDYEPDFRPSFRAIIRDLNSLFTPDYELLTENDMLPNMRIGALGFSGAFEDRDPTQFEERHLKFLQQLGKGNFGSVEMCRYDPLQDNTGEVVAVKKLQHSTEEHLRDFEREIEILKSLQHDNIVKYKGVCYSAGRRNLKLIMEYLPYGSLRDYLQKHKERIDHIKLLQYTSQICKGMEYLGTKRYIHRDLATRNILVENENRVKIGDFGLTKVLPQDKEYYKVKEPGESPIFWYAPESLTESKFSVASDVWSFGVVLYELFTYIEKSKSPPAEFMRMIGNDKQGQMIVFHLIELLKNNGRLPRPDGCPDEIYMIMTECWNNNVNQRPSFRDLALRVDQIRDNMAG

In the case of `COCCCn1nc(Nc2cc(O[C@H]3CC[C@@H](NC[C@@H](O)C(F)(F)F)CC3)cc3c2ncn3C)cc1C` [Example 1, (2R)-1,1,1-Trifluoro-3-({cis-4-[(4-{[1-(3-methoxypropyl)-5-methyl-1H-pyrazol-3-yl]amino}-1-methyl-1H-benzimidazol-6-yl)oxy]cyclohexyl}amino)propan-2-ol], the IC50 amounted to 3.25 ± 0.99 nM in assay [1], 1200 ± 550 nM in assay [2], 3.72 ± 1.3 µM in assay [3] and 0.154 ± 0.023 nM in assay [4].
`COCCn1nc(Nc2cc(O[C@H]3CC[C@@H](NC[C@@H](O)C(F)(F)F)CC3)cc3c2ncn3C)cc1C` [Example 2, (2R)-1,1,1-Trifluoro-3-({cis-4-[(4-{[1-(2-methoxyethyl)-5-methyl-1H-pyrazol-3-yl]amino}-1-methyl-1H-benzimidazol-6-yl)oxy]cyclohexyl}amino)propan-2-ol] had an IC50 in assay [4] of 0.275 ± 0.102 nM.
